Laboratory results: the supplement of paper PMC10307832

Assays:
Assay in all cases: relative viability (nuclei count vs DMSO), 5 days (fraction); higher = more cells survive
[1] = compound: CC(=O)Nc1cccc(-n2c(=O)n(C3CC3)c(=O)c3c(Nc4ccc(I)cc4F)n(C)c(=O)c(C)c32)c1 [Trametinib] + Cc1nc(Nc2ncc(C(=O)Nc3c(C)cccc3Cl)s2)cc(N2CCN(CCO)CC2)n1 [Dasatinib] (partner 0.075 µM)
How it was run: (§1)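 For relative viability, nuclei counts in treated wells were divided by those in vehicle wells. Lung cancer cell lines had been pin-tool dosed in 1536-well plates the day after seeding and cultured for 5 days, then fixed and stained in one step (final 0.05% Triton X-100, 1% formaldehyde, 1 ug/ml Hoechst) and imaged at 4×. Doses were one drug alone or a fixed anchor-drug dose plus five library-drug doses (not always all listed) in √10 steps, and values are duplicate-plate medians.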

[2] = compound: CC(=O)Nc1cccc(-n2c(=O)n(C3CC3)c(=O)c3c(Nc4ccc(I)cc4F)n(C)c(=O)c(C)c32)c1 [Trametinib] + Cc1nc(NC(=O)N2CCC[C@H]2C(N)=O)sc1-c1ccnc(C(C)(C)C(F)(F)F)c1 [Alpelisib] (partner 2 µM)
How it was run: as §1

[3] = compound: CC(=O)Nc1cccc(-n2c(=O)n(C3CC3)c(=O)c3c(Nc4ccc(I)cc4F)n(C)c(=O)c(C)c32)c1 [Trametinib] + C[C@]1(O)C[C@@H](c2nc(-c3ccc4ccc(-c5ccccc5)nc4c3)c3c(N)nccn32)C1 [Linsitinib] (partner 1 µM)
How it was run: as §1

[4] = compound: CC(=O)Nc1cccc(-n2c(=O)n(C3CC3)c(=O)c3c(Nc4ccc(I)cc4F)n(C)c(=O)c(C)c32)c1 [Trametinib] + CS(=O)(=O)N1CCN(Cc2cc3nc(-c4cccc5[nH]ncc45)nc(N4CCOCC4)c3s2)CC1 [Pictilisib] (partner 1 µM)
How it was run: as §1

| Cell Line | relative viability ([1]; first compound 0.0025 µM) | relative viability ([1]; first compound 0.007906 µM) | relative viability ([1]; first compound 0.025 µM) | relative viability ([1]; first compound 0.07906 µM) | relative viability ([1]; first compound 0.25 µM) | relative viability ([2]; first compound 0.0025 µM) | relative viability ([2]; first compound 0.007906 µM) | relative viability ([2]; first compound 0.025 µM) | relative viability ([2]; first compound 0.07906 µM) | relative viability ([2]; first compound 0.25 µM) | relative viability ([3]; first compound 0.0025 µM) | relative viability ([3]; first compound 0.007906 µM) | relative viability ([3]; first compound 0.025 µM) | relative viability ([3]; first compound 0.07906 µM) | relative viability ([3]; first compound 0.25 µM) | relative viability ([4]; first compound 0.0025 µM) | relative viability ([4]; first compound 0.007906 µM) | relative viability ([4]; first compound 0.025 µM) | relative viability ([4]; first compound 0.07906 µM) | relative viability ([4]; first compound 0.25 µM) |
| --- | --- | --- | --- | --- | --- | --- | --- | --- | --- | --- | --- | --- | --- | --- | --- | --- | --- | --- | --- | --- |
| NCI-H441 | 0.37 | 0.49 | 0.249 | 0.287 | 0.206 | 0.836 | 0.659 | 0.638 | 0.533 | 0.33 | 0.553 | 0.471 | 0.293 | 0.253 | 0.21 | 0.44 | 0.306 | 0.234 | 0.214 | 0.163 |
| NCI-H520 | 0.281 | 0.225 | 0.288 | 0.282 | 0.176 | 0.768 | 0.887 | 0.81 | 0.818 | 0.693 | 0.947 | 1.02 | 1.02 | 0.905 | 0.664 | 0.294 | 0.292 | 0.259 | 0.195 | 0.217 |
| CAL-12T | 0.232 | 0.219 | 0.268 | 0.165 | 0.104 | 1.14 | 0.79 | 0.452 | 0.45 | 0.34 | 0.79 | 0.607 | 0.484 | 0.428 | 0.341 | 0.348 | 0.29 | 0.271 | 0.279 | 0.318 |
| HCC-827 | 0.301 | 0.243 | 0.246 | 0.144 | 0.157 | 1.01 | 0.753 | 0.699 | 0.591 | 0.399 | 0.958 | 0.893 | 0.944 | 0.886 | 0.753 | 0.949 | 0.986 | 0.959 | 0.666 | 0.627 |
| LC-2-ad | 0.484 | 0.485 | 0.502 | 0.313 | 0.301 | 0.864 | 0.452 | 0.662 | 0.408 | 0.233 | 0.871 | 0.716 | 0.729 | 0.502 | 0.381 | 0.412 | 0.444 | 0.237 | 0.216 | 0.195 |
| NCI-H2170 | 0.56 | 0.476 | 0.37 | 0.347 | 0.416 | 0.828 | 0.721 |  | 0.669 | 0.638 |  |  |  |  |  | 0.281 | 0.276 |  | 0.238 | 0.249 |
| SW 1573 | 0.513 | 0.389 | 0.371 | 0.323 | 0.266 | 0.629 | 0.619 | 0.564 | 0.457 | 0.43 | 0.847 | 0.602 | 0.654 | 0.487 | 0.449 | 0.357 | 0.34 | 0.339 | 0.308 | 0.214 |
| SK-MES-1 | 0.324 | 0.313 | 0.208 | 0.171 | 0.156 | 0.722 | 0.542 | 0.323 | 0.31 | 0.184 | 1.02 | 0.938 | 0.779 | 0.505 | 0.338 | 0.282 | 0.223 | 0.214 | 0.171 | 0.187 |
| NCI-H1793 | 0.26 | 0.25 | 0.244 | 0.212 | 0.242 | 0.578 | 0.457 | 0.28 | 0.425 | 0.29 | 0.806 | 0.523 | 0.309 | 0.302 | 0.296 | 0.4 | 0.314 | 0.169 | 0.307 | 0.232 |
| NCI-H1299 |  |  |  |  |  | 1.04 | 1.08 | 0.911 | 0.799 | 0.744 | 0.955 | 0.953 | 0.9 | 0.726 | 0.386 | 0.475 | 0.47 | 0.32 | 0.0746 | 0.157 |
| LCLC-97TM1 | 0.816 | 0.44 | 0.381 | 0.125 | 0.171 | 0.216 | 0.199 | 0.146 | 0.183 | 0.11 | 0.185 | 0.195 | 0.147 | 0.133 | 0.119 | 0.141 | 0.135 | 0.11 | 0.128 | 0.0971 |
| NCI-H1915 | 0.273 | 0.203 | 0.196 | 0.109 | 0.0747 | 1.06 | 0.906 | 0.6 | 0.528 | 0.254 | 1.14 | 1.05 | 0.671 | 0.674 | 0.278 | 0.963 | 0.466 | 0.317 | 0.287 | 0.24 |
| NCI-H661 | 0.816 | 0.796 | 0.565 | 0.481 | 0.513 | 0.607 | 0.654 | 0.411 | 0.257 | 0.264 | 0.537 | 0.499 | 0.567 | 0.392 | 0.403 | 0.377 | 0.426 | 0.222 | 0.273 | 0.257 |
| NCI-H2405 | 0.209 | 0.187 | 0.19 | 0.173 | 0.183 | 0.599 | 0.42 | 0.339 | 0.379 | 0.315 | 0.577 | 0.486 | 0.382 | 0.362 | 0.349 | 0.298 | 0.251 | 0.257 | 0.204 | 0.236 |
| NCI-H2347 | 0.234 | 0.16 | 0.162 | 0.172 | 0.149 | 0.96 | 0.552 | 0.346 | 0.38 | 0.36 | 0.93 | 0.653 | 0.404 | 0.431 | 0.445 | 0.452 | 0.301 | 0.221 | 0.229 | 0.272 |
| NCI-H1651 | 0.487 | 0.384 | 0.404 | 0.284 | 0.217 | 0.901 | 0.864 | 0.775 | 0.597 | 0.66 | 0.969 | 0.763 | 0.888 | 0.835 | 0.659 | 0.5 | 0.488 | 0.406 | 0.49 | 0.389 |
